Assay: Pharmacokinetics after oral capsules (sCT plus Dmt-DALDA with citric acid and lauroyl carnitine), non-enteric coated or enteric coated, in fasted beagle dogs (plasma; ELISA for sCT, HPLC-MS for Dmt-DALDA)
Assay type: in vivo
Procedure: A second series of tests was carried out, as noted above, using beagle dogs. […] In the experiments represented in FIGS. 2A and 2B, size 00 […] capsules were each filled with 758 mg of a powdered blend consisting of citric acid (643 mg), lauroyl carnitine (66 mg), talc (33 mg), salmon calcitonin (sCT) (13 mg) and Dmt-DALDA (2.4 mg). Half of the capsules were coated with an enteric coating solution of L30D-55, while the remaining 50% of the capsules were not coated. Four fasted dogs were each given 1 uncoated capsule, and 2 weeks later they were each given an enteric coated capsule. After administration of each capsule, samples of blood were taken at 15 minute intervals from an indwelling catheter for up to 4 hours. The blood samples were centrifuged and the resulting plasma supernatants were stored frozen at −20° C. The plasma samples were subsequently analyzed for sCT by a direct ELISA, and for Dmt-DALDA by HPLC-mass spectrometry performed as set forth in Wan, H. and Desiderio, D., Quantitation of [DMT^1] DALDA in ovine plasma by on-line liquid chromatography/quadrapole time-of-flight mass spectrometry, Rapid Communications in Mass Spectrometry, 2003; 17, 538-546, the contents of which are incorporated herein by reference.
The results summarized in FIGS. 2A and 2B as plasma peptide concentration normalized to a 1 mg dose as a function of time relative to the average Tmax, (i.e., the time at which the maximum amount of peptide was detected) indicate that both peptides, i.e., sCT and Dmt-DALDA, were detected in dogs given uncoated or enteric coated capsules. […] Table DI (below) sets forth the values upon which the curves in FIGS. 2A and 2B are based. The results are summarized in the tables as plasma peptide concentration normalized to a 1 mg dose as a function of time. Table III, moreover, provides the standard deviations for the data obtained regarding each of the test dogs, which standard deviations are also indicated in FIGS. 2A and 2B.
Table IV (below) summarizes the pharmacokinetic parameters in dogs of orally administered sCT and Dmt-DALDA when administered in non-enteric coated versus enteric coated capsules. Peptide was not detected from 1 dog in each group due to (a) Dog 3 vomiting the uncoated capsule and (b) delayed gastric emptying in Dog 2 provided with an enteric coated capsule. Cmax and AUC are as defined with regard to Table H above.

CC(C)C[C@H](NC(=O)[C@H](CCCCN)NC(=O)CNC(=O)[C@H](CC(C)C)NC(=O)[C@@H](NC(=O)[C@@H]1CSSC[C@H](N)C(=O)N[C@@H](CO)C(=O)N[C@@H](CC(N)=O)C(=O)N[C@@H](CC(C)C)C(=O)N[C@@H](CO)C(=O)N[C@@H]([C@@H](C)O)C(=O)N1)C(C)C)C(=O)N[C@@H](CO)C(=O)N[C@@H](CCC(N)=O)C(=O)N[C@@H](CCC(=O)O)C(=O)N[C@@H](CC(C)C)C(=O)N[C@@H](Cc1c[nH]cn1)C(=O)N[C@@H](CCCCN)C(=O)N[C@@H](CC(C)C)C(=O)N[C@@H](CCC(N)=O)C(=O)N[C@H](C(=O)N[C@@H](Cc1ccc(O)cc1)C(=O)N1CCC[C@H]1C(=O)N[C@@H](CCCNC(=N)N)C(=O)N[C@H](C(=O)N[C@@H](CC(N)=O)C(=O)N[C@H](C(=O)NCC(=O)N[C@@H](CO)C(=O)NCC(=O)N[C@H](C(=O)N1CCC[C@H]1C(N)=O)[C@@H](C)O)[C@@H](C)O)[C@@H](C)O)[C@@H](C)O [sCT, salmon calcitonin]
plasma peptide concentration normalized to a 1 mg dose (enteric coated capsule, Dog 3, 75 min): 0 pg/mL | plasma peptide concentration normalized to a 1 mg dose (enteric coated capsule, Dog 3, 90 min): 0 pg/mL | plasma peptide concentration normalized to a 1 mg dose (enteric coated capsule, Dog 3, 105 min): 0 pg/mL | plasma peptide concentration normalized to a 1 mg dose (enteric coated capsule, Dog 3, 120 min): 0 pg/mL | plasma peptide concentration normalized to a 1 mg dose (enteric coated capsule, Dog 3, 135 min): 13219 pg/mL | plasma peptide concentration normalized to a 1 mg dose (enteric coated capsule, Dog 3, 150 min): 10151 pg/mL | plasma peptide concentration normalized to a 1 mg dose (enteric coated capsule, Dog 3, 165 min): 4410 pg/mL | plasma peptide concentration normalized to a 1 mg dose (enteric coated capsule, Dog 3, 180 min): 2983 pg/mL | plasma peptide concentration normalized to a 1 mg dose (enteric coated capsule, Dog 3, 195 min): 1825 pg/mL | plasma peptide concentration normalized to a 1 mg dose (enteric coated capsule, Dog 4, 0 min): 0 pg/mL | plasma peptide concentration normalized to a 1 mg dose (enteric coated capsule, Dog 4, 15 min): 0 pg/mL | plasma peptide concentration normalized to a 1 mg dose (enteric coated capsule, Dog 4, 30 min): 0 pg/mL | plasma peptide concentration normalized to a 1 mg dose (enteric coated capsule, Dog 4, 45 min): 0 pg/mL | plasma peptide concentration normalized to a 1 mg dose (enteric coated capsule, Dog 4, 60 min): 0 pg/mL | plasma peptide concentration normalized to a 1 mg dose (enteric coated capsule, Dog 4, 75 min): 0 pg/mL | plasma peptide concentration normalized to a 1 mg dose (enteric coated capsule, Dog 4, 90 min): 0 pg/mL | plasma peptide concentration normalized to a 1 mg dose (enteric coated capsule, Dog 4, 105 min): 13111 pg/mL | plasma peptide concentration normalized to a 1 mg dose (enteric coated capsule, Dog 4, 120 min): 13147 pg/mL | plasma peptide concentration normalized to a 1 mg dose (enteric coated capsule, Dog 4, 135 min): 6841 pg/mL | plasma peptide concentration normalized to a 1 mg dose (enteric coated capsule, Dog 4, 150 min): 4251 pg/mL | plasma peptide concentration normalized to a 1 mg dose (enteric coated capsule, Dog 4, 165 min): 2448 pg/mL | plasma peptide concentration normalized to a 1 mg dose (enteric coated capsule, Dog 4, 180 min): 1468 pg/mL | plasma peptide concentration normalized to a 1 mg dose (enteric coated capsule, Dog 4, 195 min): 1192 pg/mL | plasma peptide concentration normalized to a 1 mg dose (non-enteric coated capsule, Dog 1, 45 min): 1343 pg/mL | plasma peptide concentration normalized to a 1 mg dose (non-enteric coated capsule, Dog 1, 60 min): 561 pg/mL | plasma peptide concentration normalized to a 1 mg dose (non-enteric coated capsule, Dog 1, 75 min): 273 pg/mL | plasma peptide concentration normalized to a 1 mg dose (non-enteric coated capsule, Dog 1, 90 min): 140 pg/mL | plasma peptide concentration normalized to a 1 mg dose (non-enteric coated capsule, Dog 1, 105 min): 121 pg/mL | plasma peptide concentration normalized to a 1 mg dose (non-enteric coated capsule, Dog 1, 120 min): 89 pg/mL | plasma peptide concentration normalized to a 1 mg dose (non-enteric coated capsule, Dog 1, 135 min): 51 pg/mL | plasma peptide concentration normalized to a 1 mg dose (non-enteric coated capsule, Dog 1, 150 min): 31 pg/mL | plasma peptide concentration normalized to a 1 mg dose (non-enteric coated capsule, Dog 1, 165 min): 23 pg/mL | plasma peptide concentration normalized to a 1 mg dose (non-enteric coated capsule, Dog 1, 180 min): 16 pg/mL | plasma peptide concentration normalized to a 1 mg dose (non-enteric coated capsule, Dog 1, 195 min): 11 pg/mL | plasma peptide concentration normalized to a 1 mg dose (non-enteric coated capsule, Dog 1, 210 min): 0 pg/mL | plasma peptide concentration normalized to a 1 mg dose (non-enteric coated capsule, Dog 1, 225 min): 0 pg/mL | plasma peptide concentration normalized to a 1 mg dose (non-enteric coated capsule, Dog 1, 240 min): 0 pg/mL | plasma peptide concentration normalized to a 1 mg dose (non-enteric coated capsule, Dog 2, 45 min): 2151 pg/mL | plasma peptide concentration normalized to a 1 mg dose (non-enteric coated capsule, Dog 2, 60 min): 897 pg/mL | plasma peptide concentration normalized to a 1 mg dose (non-enteric coated capsule, Dog 2, 75 min): 229 pg/mL | plasma peptide concentration normalized to a 1 mg dose (non-enteric coated capsule, Dog 2, 90 min): 182 pg/mL | plasma peptide concentration normalized to a 1 mg dose (non-enteric coated capsule, Dog 2, 105 min): 122 pg/mL | plasma peptide concentration normalized to a 1 mg dose (non-enteric coated capsule, Dog 2, 120 min): 69 pg/mL | plasma peptide concentration normalized to a 1 mg dose (non-enteric coated capsule, Dog 2, 135 min): 44 pg/mL | plasma peptide concentration normalized to a 1 mg dose (non-enteric coated capsule, Dog 2, 150 min): 39 pg/mL | plasma peptide concentration normalized to a 1 mg dose (non-enteric coated capsule, Dog 2, 165 min): 22 pg/mL | plasma peptide concentration normalized to a 1 mg dose (non-enteric coated capsule, Dog 2, 180 min): 15 pg/mL | plasma peptide concentration normalized to a 1 mg dose (non-enteric coated capsule, Dog 2, 195 min): 0 pg/mL | plasma peptide concentration normalized to a 1 mg dose (non-enteric coated capsule, Dog 2, 210 min): 0 pg/mL | plasma peptide concentration normalized to a 1 mg dose (non-enteric coated capsule, Dog 2, 225 min): 0 pg/mL | plasma peptide concentration normalized to a 1 mg dose (non-enteric coated capsule, Dog 2, 240 min): 0 pg/mL | plasma peptide concentration normalized to a 1 mg dose (non-enteric coated capsule, Dog 4, 45 min): 278 pg/mL | plasma peptide concentration normalized to a 1 mg dose (non-enteric coated capsule, Dog 4, 60 min): 163 pg/mL | plasma peptide concentration normalized to a 1 mg dose (non-enteric coated capsule, Dog 4, 75 min): 101 pg/mL | plasma peptide concentration normalized to a 1 mg dose (non-enteric coated capsule, Dog 4, 90 min): 69 pg/mL | plasma peptide concentration normalized to a 1 mg dose (non-enteric coated capsule, Dog 4, 105 min): 45 pg/mL | plasma peptide concentration normalized to a 1 mg dose (non-enteric coated capsule, Dog 4, 120 min): 26 pg/mL | plasma peptide concentration normalized to a 1 mg dose (non-enteric coated capsule, Dog 4, 135 min): 16 pg/mL | plasma peptide concentration normalized to a 1 mg dose (non-enteric coated capsule, Dog 4, 150 min): 12 pg/mL | plasma peptide concentration normalized to a 1 mg dose (non-enteric coated capsule, Dog 4, 165 min): 0 pg/mL | plasma peptide concentration normalized to a 1 mg dose (non-enteric coated capsule, Dog 4, 180 min): 0 pg/mL | plasma peptide concentration normalized to a 1 mg dose (non-enteric coated capsule, Dog 4, 195 min): 0 pg/mL | plasma peptide concentration normalized to a 1 mg dose (non-enteric coated capsule, Dog 4, 210 min): 0 pg/mL | plasma peptide concentration normalized to a 1 mg dose (non-enteric coated capsule, Dog 4, 225 min): 0 pg/mL | plasma peptide concentration normalized to a 1 mg dose (non-enteric coated capsule, Dog 4, 240 min): 0 pg/mL
